Converted amounts (≈) assume the structure as drawn. “Also recorded” adds a separate entry of the source. Where two headings read alike, the source gives them in different places.

Consider two molecules from patent publication US20250145622A1, “SOLID FORMS OF A TRIAZINE DERIVATIVE AS CBL-B MODULATOR” (HOTSPOT THERAPEUTICS, INC., priority 2022, published 2025).

Assay type in all cases: physicochemical
The nature of data set [1]: Dynamic vapor sorption (DVS), water sorption isotherm. The protocol:
Vapor sorption data were collected on a Surface Measurement System DVS Intrinsic instrument. Samples were not dried prior to analysis. Sorption and desorption data were collected over a range from 5% to 95% RH at 10% RH increments under a nitrogen purge. The equilibrium criterion used for analysis was less than 0.0100% weight change in 5 minutes with a maximum equilibration time of 3 hours.

Data set [2] can be described thus: Solubility determination by solvent addition (visual assessment). Particulars: thermodynamic from solid. The protocol:
Aliquots of various solvents were added to measured amounts of the anhydrous crystalline form of the compound of formula (I) at various temperatures with sonication or stirring. Solubilities were calculated based on the total solvent used to give a solution; actual solubilities may be greater because of the volume of solvent portions utilized or a slow rate of dissolution. […] If dissolution occurred at the first aliquot the value was reported as “>”.

Data set [3] in a line: Dynamic vapor sorption (DVS), water sorption isotherm. The source holds these as a separate data set.

Consider `C[C@H]1CCCN(Cc2cc(C(F)(F)F)c3cn(-c4cccc([C@H](c5nncn5C)C5CCC5)c4)c(=O)n3c2)C1` [2-(3-((R)-cyclobutyl(4-methyl-4H-1,2,4-triazol-3-yl)methyl)phenyl)-6-(((S)-3-methylpiperidin-1-yl)methyl)-8-(trifluoromethyl)imidazo[1,5-a]pyridin-3(2H)-one], for which the “XRPD analysis on the post-DVS sample (solid form)” value in data set [1] (after DVS) was “amorphous”. In data set [1] (desorption step), the hysteresis on desorption entry is “very minor hysteresis; also recorded: Significant hysteresis”. Moreover, the weight gain in data set [1] (from 5% to 74% RH) is listed as 1.2 % wt; in data set [3] (from 75% to 96% RH), 14.6 % wt. In data set [1] (from 5 to 95% RH), the “water taken up during sorption” value is reported as 0.1 moles of water per mole of API. In addition, in data set [1] (from 5 to 95% relative humidity (RH)), the “weight gain during the sorption step” value is listed as 0.4%. In addition, the “appearance of sample after DVS” value in data set [1] (upon desorption) is “signs of partial deliquescence”. The hygroscopicity classification entry in data set [1] (water sorption isotherm, Ph. Eur. 10.0 classes) is reported as “slightly hygroscopic”. The solubility – broadly, how much of the substance goes into solution per volume – in data set [2] (aqueous with cosolvent or surfactant or cyclodextrin, solvent Water/EtOH (20/80 v/v), read-out: Solubility) was greater than 29 mg/mL; in data set [2] (aqueous with cosolvent or surfactant or cyclodextrin, solvent Water/EtOH (40/60 v/v), read-out: Solubility) it was greater than 36 mg/mL; in data set [2] (aqueous with cosolvent or surfactant or cyclodextrin, solvent Water/EtOH (50/50 v/v), read-out: Solubility) it was 9 mg/mL (≈ 16.7 mM); in data set [2] (aqueous with cosolvent or surfactant or cyclodextrin, solvent Water/EtOH (60/40 v/v), read-out: Solubility) it was less than 4 mg/mL; in data set [2] (aqueous with cosolvent or surfactant or cyclodextrin, solvent Water/IPA (20/80 v/v), read-out: Solubility), greater than 30 mg/mL; in data set [2] (aqueous with cosolvent or surfactant or cyclodextrin, solvent Water/IPA (40/60 v/v), read-out: Solubility) it was greater than 37 mg/mL. The solubility in data set [2] (aqueous with cosolvent or surfactant or cyclodextrin, solvent Water/IPA (60/40 v/v), read-out: Solubility) was 9 mg/mL (≈ 16.7 mM); in data set [2] (aqueous with cosolvent or surfactant or cyclodextrin, solvent Water/MeOH (20/80 v/v), read-out: Solubility) it was greater than 29 mg/mL; in data set [2] (aqueous with cosolvent or surfactant or cyclodextrin, solvent Water/MeOH (40/60 v/v), read-out: Solubility) it was 7 mg/mL (≈ 13 mM); in data set [2] (aqueous with cosolvent or surfactant or cyclodextrin, solvent Water/MeOH (60/40 v/v), read-out: Solubility), less than 3 mg/mL; in data set [2] (organic solvent or mixture, solvent ACN, read-out: Solubility) it was 85 mg/mL (≈ 158 mM); in data set [2] (organic solvent or mixture, solvent Acetone, read-out: Solubility) it was 31 mg/mL (≈ 57.6 mM). In addition, the solubility in data set [2] (organic solvent or mixture, solvent DCM, read-out: Solubility) is greater than 100 mg/mL; in data set [2] (organic solvent or mixture, solvent DIPE, read-out: Solubility) it was less than 2 mg/mL; in data set [2] (organic solvent or mixture, solvent EtOAc, read-out: Solubility), 38 mg/mL (≈ 70.6 mM); in data set [2] (organic solvent or mixture, solvent EtOH, read-out: Solubility), 99 mg/mL (≈ 184 mM); in data set [2] (organic solvent or mixture, solvent Heptane, read-out: Solubility), less than 1 mg/mL; in data set [2] (organic solvent or mixture, solvent IPA, read-out: Solubility), 79 mg/mL (≈ 147 mM). The solubility in data set [2] (organic solvent or mixture, solvent MTBE, read-out: Solubility) is 4 mg/mL (≈ 7.43 mM); in data set [2] (organic solvent or mixture, solvent MeOH, read-out: Solubility) it was 91 mg/mL (≈ 169 mM); in data set [2] (organic solvent or mixture, solvent THF, read-out: Solubility) it was 95 mg/mL (≈ 176 mM); in data set [2] (organic solvent or mixture, solvent Toluene, read-out: Solubility), 99 mg/mL (≈ 184 mM); in data set [2] (solvent Water, read-out: Solubility) it was less than 1 mg/mL. In addition, in data set [3] (5% to 96% RH), the total water gained was 7.6 moles of water. Also, in data set [3] (5% to 96% RH), the total weight gained turned out to be 15.8%.
With `C[C@H]1CCCN(Cc2cc(C(F)(F)F)c3cn(-c4cccc([C@H](c5nncn5C)C5CCC5)c4)c(=O)n3c2)C1`, the solubility in data set [2] (water, 25° C., by solvent addition, read-out: aqueous solubility) was greater than 111 mg/mL.
